# Test results reported in patent US4311698A, “Aminoacid derivatives of cephalosporin compounds” (priority 1980, dated 1982).
# Like-named read-outs stand apart in the source and are kept apart here.
# Assays:
# Type in all cases: cell-based
# Entero Cloac. IM 11 = test: In vitro minimal inhibitory concentration, Entero Cloac. IM 11
# Pseudomonas BRK 12-4-4 = test: In vitro minimal inhibitory concentration, Pseudomonas BRK 12-4-4; settings: for MIC: BRK1244
# Staph UC76 = test: In vitro minimal inhibitory concentration, Staph UC76
# Pseudomonas #28 = test: In vitro minimal inhibitory concentration, Pseudomonas #28; settings: for MIC: read-out: Minimal Inhibitory Concentration
# Staph S 18713 = test: In vitro minimal inhibitory concentration, Staph S 18713
# Prot Vulg. = test: In vitro minimal inhibitory concentration, Prot Vulg.
# Klebs. Pneum. MGH 2 = test: In vitro minimal inhibitory concentration, Klebs. Pneum. MGH 2
# Pseudomonas UI 18 = test: In vitro minimal inhibitory concentration, Pseudomonas UI 18; settings: for MIC: UI18
# E. Coli. Vogel = test: In vitro minimal inhibitory concentration, E. Coli. Vogel; settings: for MIC: Escherichia coli
# Strep. fec. MGH 2 = test: In vitro minimal inhibitory concentration, Strep. fec. MGH 2
# E. Coli. Brig = test: In vitro minimal inhibitory concentration, E. Coli. Brig; settings: for MIC: Escherichia coli
# Serr. Mar. IMM 16 = test: In vitro minimal inhibitory concentration, Serr. Mar. IMM 16
SMILES,MIC (Entero Cloac. IM 11) [µg/mL],MIC (Pseudomonas BRK 12-4-4) [µg/mL],MIC (Staph UC76) [µg/mL],"MIC (Pseudomonas #28; Pseudomonas #28, in vitro) [µg/mL]",MIC (Staph S 18713) [µg/mL],MIC (Prot Vulg.) [µg/mL],MIC (Klebs. Pneum. MGH 2) [µg/mL],MIC (Pseudomonas UI 18) [µg/mL],MIC (E. Coli. Vogel) [µg/mL],MIC (Strep. fec. MGH 2) [µg/mL],MIC (E. Coli. Brig) [µg/mL],MIC (Serr. Mar. IMM 16) [µg/mL],also measured
"CC(=O)N[C@H](CC(N)=O)C(=O)Nc1ccc(-c2ccc(C(=O)N[C@@H](C(=O)NC3C(=O)N4C(C(=O)O)=C(CSc5nnnn5C)CSC34)c3ccccc3)c(=O)[nH]2)cc1 (stereo partly drawn) [Example 23, N-[6-[4-(N-Acetyl-D-asparaginylamino)phenyl]-1,2-dihydro-2-oxonicotinyl]-7-[D-2-amino-2-phenylacetamido]-3-[[(1-methyl-1H-tetrazol-5-yl)thio]methyl]-3-cephem-4-carboxylic acid]",6.3,6.3,0.8,12.5,6.3,12.5,1.6,6.3,0.8,25,3.1,25,
"CC(=O)N[C@H](C)C(=O)Nc1ccc(-c2ccc(C(=O)N[C@@H](C(=O)NC3C(=O)N4C(C(=O)O)=C(CSc5nnnn5C)CSC34)c3ccc(O)cc3)c(=O)[nH]2)cc1 (stereo partly drawn) [Example 25, N-[6-[4(N-Acetyl-D-alanylamino)phenyl]-1,2-dihydro-2-oxonicotinyl]-7-[D-2-amino-2-(4-hydroxyphenyl)acetamido]-3-[[(1-methyl-1H-tetrazol-5-yl)thio]methyl]-3-cephem-4-carboxylic acid]",1.6,3.1,1.6,3.1,6.3,6.3,1.6,3.1,0.8,12.5,3.1,12.5,
CC(=O)N[C@H](C)C(=O)Nc1cccc(-c2ccc(C(=O)N[C@@H](C(=O)NC3C(=O)N4C(C(=O)O)=C(COC(C)=O)CSC34)c3ccccc3)c(=O)[nH]2)c1 (stereo partly drawn) [Example 28],50,25,1.6,12.5,1.6,50,25,12.5,12.5,25,25,> 50,
"CC(=O)OCC1=C(C(=O)O)N2C(=O)C(NC(=O)[C@H](NC(=O)c3ccc(-c4ccc(NC(=O)[C@@H](C)N)cc4)[nH]c3=O)c3ccccc3)C2SC1 (stereo partly drawn) [Example 29, N-[6-[4-(D-Alanylamino)phenyl]-1,2-dihydro-2-oxonicotinyl]-7-[D-2-amino-2-phenylacetamido]-3-acetoxymethyl-3-cephem-4-carboxylic acid]",,,,,,,,,,,,,"Minimal Inhibitory Concentration (Entero Cloac. IM 11): 12.5 µg/mL; Minimal Inhibitory Concentration (Pseudomonas BRK 12-4-4): 1.6 µg/mL; Minimal Inhibitory Concentration (Staph UC76): 0.4 µg/mL; Minimal Inhibitory Concentration (Pseudomonas #28; Pseudomonas #28, in vitro): 1.6 µg/mL; Minimal Inhibitory Concentration (Staph S 18713): 1.6 µg/mL; Minimal Inhibitory Concentration (Prot Vulg.): 6.3 µg/mL; Minimal Inhibitory Concentration (Klebs. Pneum. MGH 2): 6.3 µg/mL; Minimal Inhibitory Concentration (Pseudomonas UI 18): 1.6 µg/mL; Minimal Inhibitory Concentration (E. Coli. Vogel): 1.6 µg/mL; Minimal Inhibitory Concentration (Strep. fec. MGH 2): 12.5 µg/mL; Minimal Inhibitory Concentration (E. Coli. Brig): 6.3 µg/mL; Minimal Inhibitory Concentration (Serr. Mar. IMM 16): 25 µg/mL"
"CC(=O)N1CC(O)C[C@H]1C(=O)Nc1ccc(-c2ccc(C(=O)N[C@@H](C(=O)NC3C(=O)N4C(C(=O)O)=C(CSc5nnnn5CC(=O)O)CSC34)c3ccccc3)c(=O)[nH]2)cc1 (stereo partly drawn) [Example 30, N-[6-[4-(N-Acetyl-4-hydroxy-L-prolylamino)phenyl]-1,2-dihydro-2-oxonicotinyl]-7-[D-2-amino-2-phenylacetamido]-3-[[(1-carboxymethyl-1H-tetrazol-5-yl)thio]methyl]-3-cephem-4-carboxylic acid]",3.1,12.5,6.3,6.3,25,1.6,1.6,6.3,0.8,> 50,3.1,12.5,
"CC(=O)OCC1=C(C(=O)O)N2C(=O)C(NC(=O)[C@H](NC(=O)c3ccc(-c4ccc(NC(=O)[C@@H]5CC(O)CN5C(C)=O)cc4)[nH]c3=O)c3ccccc3)C2SC1 (stereo partly drawn) [Example 31, N-[6-[4-(N-Acetyl-4-hydroxy-L-prolylamino)phenyl]-1,2-dihydro-2-oxonicotinyl]-7-[D-2-amino-2-phenylacetamido]-3-acetoxymethyl-3-cephem-4-carboxylic acid]",12.5,12.5,0.8,12.5,25,25,6.3,12.5,3.1,25,12.5,> 50,
"CC(=O)OCC1=C(C(=O)O)N2C(=O)C(NC(=O)[C@H](NC(=O)c3ccc(-c4ccc(NC(=O)[C@@H]5CC(OC(C)=O)CN5C(C)=O)cc4)[nH]c3=O)c3ccccc3)C2SC1 (stereo partly drawn) [Example 32, N-[6-[4-[N-Acetyl-4-(acetyloxy)-L-prolylamino]phenyl]-1,2-dihydro-2-oxoniotinyl]-7-[D-2-amino-2-phenylacetamido]-3-acetoxymethyl-3-cephem-4-carboxylic acid]",25,25,1.6,12.5,6.3,25,12.5,12.5,6.3,25,25,> 50,
"CC(=O)OCC1=C(C(=O)O)N2C(=O)C(NC(=O)[C@H](NC(=O)c3ccc(-c4ccc(NC(=O)[C@@H]5CCC(=O)N5C)cc4)[nH]c3=O)c3ccccc3)C2SC1 (stereo partly drawn) [Example 34, N-[6-[4-[N-Methyl-5-oxo-L-prolylamino]phenyl]-1,2-dihydro-2-oxo-nicotinyl]-7-[D-2-amino-2-phenylacetamido]-3-acetoxymethyl-3-cephem-4-carboxylic acid]",12.5,12.5,0.4,6.3,3.1,12.5,6.3,6.3,3.1,25,12.5,50,
"CC(=O)NCCCC[C@H](NC(C)=O)C(=O)Nc1ccc(-c2ccc(C(=O)N[C@@H](C(=O)NC3C(=O)N4C(C(=O)O)=C(COC(C)=O)CSC34)c3ccccc3)c(=O)[nH]2)cc1 (stereo partly drawn) [Example 35, N-[6-[4-(N,N'-Diacetyl-L-lysylamino)phenyl]-1,2-dihydro-2-oxonicotinyl]-7-[D-2-amino-2-phenylacetamido]-3-acetoxymethyl-3-cephem-4-carboxylic acid]",12.5,12.5,3.1,12.5,6.3,> 50,12.5,6.3,6.3,25,25,> 50,
CC(=O)N[C@H](C)C(=O)Nc1ccc(-c2ccc(C(=O)N[C@@H](C(=O)NC3C(=O)N4C(C(=O)O)=C(CSc5nnnn5CCC(=O)O)CSC34)c3ccccc3)c(=O)[nH]2)cc1 (stereo partly drawn) [Example 41],6.3,12.5,3.1,6.3,12.5,3.1,1.6,12.5,0.8,50,6.3,12.5,
"CC(=O)N[C@@H](CCC(N)=O)C(=O)Nc1ccc(-c2ccc(C(=O)N[C@@H](C(=O)NC3C(=O)N4C(C(=O)O)=C(CSc5nnnn5CS(=O)(=O)O)CSC34)c3ccccc3)c(=O)[nH]2)cc1 (stereo partly drawn) [Example 42, N-[6-[4-(N-Acetyl-L-glutaminylamino)phenyl]-1,2-dihydro-2-oxonicotinyl]-7-[D-2-amino-2-phenylacetamido]-3-[[(1-sulfomethyl-1H-tetrazol-5-yl)thio]methyl]-3-cephem-4-carboxylic acid]",6.3,6.3,6.3,,12.5,3.1,3.1,6.3,0.8,> 50,6.3,12.5,MIC (Pseudomonas #28; Pseudomonas): 12.5 µg/mL
